Literature values, collected in patent US6437103B1, “Fatty acid analogs for diagnosis of coronary artery disease” (Biostream Inc., priority 1999, dated 2002).

Test system: myocardium
Conditions: background statement citing Goodman et al. 1984; Liefhold and Eisenhut 1986

Q: Which myocardial uptake does the source give for O=C(O)CCCCCCCCCCCCCCc1ccc(I)cc1 [15-(p-iodophenyl)pentadecanoic acid] here?
A: moderate
